The kinase profiling compilation of Christmann-Franck et al. (2016)

Tests used:
Assay in all cases: radiometric filter-binding kinase assay, Kinase HotSpot
Details in all cases: compound 0.5 µM; ATP 10 µM
[1] = target: CLK2 (human) (UniProt P49760)
[2] = target: EPHA2 (human) (UniProt P29317)
[3] = target: TTK (human) (UniProt P33981)
[4] = target: GRK6 (human) (UniProt P43250)
[5] = target: DCLK2 (human) (UniProt Q8N568)
[6] = target: PRKCB1 (human) (UniProt P05771)
[7] = target: EGFR (human) (UniProt P00533)
Chain of EGFR (human) (P00533 whole entry, looked up): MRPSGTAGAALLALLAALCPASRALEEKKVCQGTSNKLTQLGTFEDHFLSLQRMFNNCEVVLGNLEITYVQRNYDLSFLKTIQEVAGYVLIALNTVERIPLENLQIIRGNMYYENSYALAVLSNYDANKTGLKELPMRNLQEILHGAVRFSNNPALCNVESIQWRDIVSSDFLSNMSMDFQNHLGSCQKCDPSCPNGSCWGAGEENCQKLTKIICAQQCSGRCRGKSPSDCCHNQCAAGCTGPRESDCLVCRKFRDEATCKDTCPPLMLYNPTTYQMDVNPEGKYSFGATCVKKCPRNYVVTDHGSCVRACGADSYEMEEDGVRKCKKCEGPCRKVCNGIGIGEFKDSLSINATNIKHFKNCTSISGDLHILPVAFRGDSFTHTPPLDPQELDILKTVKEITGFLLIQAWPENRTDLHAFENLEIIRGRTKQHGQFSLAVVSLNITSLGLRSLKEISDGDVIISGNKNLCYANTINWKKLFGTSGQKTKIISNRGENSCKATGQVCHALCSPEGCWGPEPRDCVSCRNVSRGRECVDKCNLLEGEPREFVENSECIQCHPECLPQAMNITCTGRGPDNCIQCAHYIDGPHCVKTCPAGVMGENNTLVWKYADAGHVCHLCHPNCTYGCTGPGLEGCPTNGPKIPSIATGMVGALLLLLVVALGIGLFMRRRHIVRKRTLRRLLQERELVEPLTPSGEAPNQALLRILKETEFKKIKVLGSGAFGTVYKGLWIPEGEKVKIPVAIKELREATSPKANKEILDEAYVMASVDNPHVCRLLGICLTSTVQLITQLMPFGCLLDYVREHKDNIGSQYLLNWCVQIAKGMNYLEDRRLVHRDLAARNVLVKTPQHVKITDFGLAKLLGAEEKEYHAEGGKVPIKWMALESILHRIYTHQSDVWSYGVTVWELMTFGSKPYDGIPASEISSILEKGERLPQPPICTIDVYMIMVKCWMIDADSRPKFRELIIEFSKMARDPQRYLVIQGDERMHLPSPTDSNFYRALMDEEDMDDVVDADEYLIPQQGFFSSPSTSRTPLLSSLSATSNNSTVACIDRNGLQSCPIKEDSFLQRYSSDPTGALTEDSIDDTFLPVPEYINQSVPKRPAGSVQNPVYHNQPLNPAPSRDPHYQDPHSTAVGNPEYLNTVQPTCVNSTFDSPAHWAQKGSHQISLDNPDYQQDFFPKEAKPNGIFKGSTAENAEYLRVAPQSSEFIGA

[8] = target: TAOK3 (human) (UniProt Q9H2K8)
[9] = target: DAPK2 (human) (UniProt Q9UIK4)
[10] = target: LCK (human) (UniProt P06239)
[11] = target: CLK4 (human) (UniProt Q9HAZ1)
[12] = target: NLK (human) (UniProt Q9UBE8)
Chain of NLK (human) (Q9UBE8 whole entry, looked up): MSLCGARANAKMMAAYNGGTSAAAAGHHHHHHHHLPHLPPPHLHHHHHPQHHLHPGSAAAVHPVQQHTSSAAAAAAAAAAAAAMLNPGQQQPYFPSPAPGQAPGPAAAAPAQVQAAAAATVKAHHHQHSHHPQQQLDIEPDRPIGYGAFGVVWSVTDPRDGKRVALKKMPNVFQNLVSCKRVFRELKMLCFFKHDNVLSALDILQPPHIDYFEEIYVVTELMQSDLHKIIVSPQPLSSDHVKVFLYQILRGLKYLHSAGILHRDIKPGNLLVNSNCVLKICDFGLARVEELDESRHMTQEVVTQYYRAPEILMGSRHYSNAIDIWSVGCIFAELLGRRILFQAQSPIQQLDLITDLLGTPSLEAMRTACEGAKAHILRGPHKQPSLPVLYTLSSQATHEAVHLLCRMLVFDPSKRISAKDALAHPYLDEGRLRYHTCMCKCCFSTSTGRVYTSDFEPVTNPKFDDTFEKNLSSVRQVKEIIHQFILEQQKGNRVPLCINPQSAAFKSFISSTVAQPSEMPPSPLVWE

[13] = target: MUSK (human) (UniProt O15146)
[14] = target: RPS6KA3 KD1 KD2 (human) (UniProt P51812)
[15] = target: CDK5 CDK5R1 p35 (human) (UniProt Q00535+Q15078)
[16] = target: SRMS (human) (UniProt Q9H3Y6)
[17] = target: MAP4K2 (human) (UniProt Q12851)
[18] = target: PAK6 (human) (UniProt Q9NQU5)
[19] = target: GRK4 (human) (UniProt P32298)
[20] = target: MARK4 (human) (UniProt Q96L34)
[21] = target: MAP4K4 (human) (UniProt O95819)
Chain of MAP4K4 (human) (O95819 whole entry, looked up): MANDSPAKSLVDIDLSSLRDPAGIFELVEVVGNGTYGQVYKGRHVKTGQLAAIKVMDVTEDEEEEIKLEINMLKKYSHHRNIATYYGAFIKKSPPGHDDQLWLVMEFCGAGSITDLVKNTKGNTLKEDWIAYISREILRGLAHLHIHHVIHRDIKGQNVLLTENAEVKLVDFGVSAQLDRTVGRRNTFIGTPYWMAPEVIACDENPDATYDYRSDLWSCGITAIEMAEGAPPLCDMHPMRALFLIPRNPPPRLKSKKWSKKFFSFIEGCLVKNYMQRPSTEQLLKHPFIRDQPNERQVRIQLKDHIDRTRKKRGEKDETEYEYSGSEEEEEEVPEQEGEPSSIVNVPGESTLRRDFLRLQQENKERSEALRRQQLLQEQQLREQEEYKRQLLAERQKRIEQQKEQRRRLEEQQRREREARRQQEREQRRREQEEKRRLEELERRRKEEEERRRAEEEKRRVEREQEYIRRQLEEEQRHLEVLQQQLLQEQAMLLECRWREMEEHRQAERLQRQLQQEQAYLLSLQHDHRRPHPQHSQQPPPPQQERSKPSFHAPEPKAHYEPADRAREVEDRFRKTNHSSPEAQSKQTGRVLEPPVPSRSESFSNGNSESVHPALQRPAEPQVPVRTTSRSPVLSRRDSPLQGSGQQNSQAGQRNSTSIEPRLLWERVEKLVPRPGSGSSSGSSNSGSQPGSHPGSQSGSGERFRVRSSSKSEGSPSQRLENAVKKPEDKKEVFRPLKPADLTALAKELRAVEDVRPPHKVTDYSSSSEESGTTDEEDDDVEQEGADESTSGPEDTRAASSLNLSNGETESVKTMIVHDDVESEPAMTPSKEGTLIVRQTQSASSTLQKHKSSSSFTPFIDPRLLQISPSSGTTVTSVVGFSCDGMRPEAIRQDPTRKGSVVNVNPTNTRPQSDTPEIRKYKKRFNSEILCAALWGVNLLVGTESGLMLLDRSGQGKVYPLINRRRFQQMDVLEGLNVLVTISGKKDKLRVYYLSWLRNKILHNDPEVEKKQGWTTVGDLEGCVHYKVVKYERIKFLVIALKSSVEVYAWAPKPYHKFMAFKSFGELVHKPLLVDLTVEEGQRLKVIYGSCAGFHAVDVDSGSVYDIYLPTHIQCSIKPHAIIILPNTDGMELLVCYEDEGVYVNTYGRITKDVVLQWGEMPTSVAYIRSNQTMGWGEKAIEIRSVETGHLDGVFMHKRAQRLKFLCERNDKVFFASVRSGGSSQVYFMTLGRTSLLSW

[22] = target: PDPK1 (human) (UniProt O15530)
[23] = target: MARK2 (human) (UniProt Q7KZI7)
[24] = target: MKNK2 (human) (UniProt Q9HBH9)
[25] = target: EPHB1 (human) (UniProt P54762)
[26] = target: HIPK4 (human) (UniProt Q8NE63)
[27] = target: FER (human) (UniProt P16591)
[28] = target: LIMK1 (human) (UniProt P53667)
[29] = target: HIPK1 (human) (UniProt Q86Z02)
[30] = target: GSK3B (human) (UniProt P49841)
Chain of GSK3B (human) (P49841 whole entry, looked up): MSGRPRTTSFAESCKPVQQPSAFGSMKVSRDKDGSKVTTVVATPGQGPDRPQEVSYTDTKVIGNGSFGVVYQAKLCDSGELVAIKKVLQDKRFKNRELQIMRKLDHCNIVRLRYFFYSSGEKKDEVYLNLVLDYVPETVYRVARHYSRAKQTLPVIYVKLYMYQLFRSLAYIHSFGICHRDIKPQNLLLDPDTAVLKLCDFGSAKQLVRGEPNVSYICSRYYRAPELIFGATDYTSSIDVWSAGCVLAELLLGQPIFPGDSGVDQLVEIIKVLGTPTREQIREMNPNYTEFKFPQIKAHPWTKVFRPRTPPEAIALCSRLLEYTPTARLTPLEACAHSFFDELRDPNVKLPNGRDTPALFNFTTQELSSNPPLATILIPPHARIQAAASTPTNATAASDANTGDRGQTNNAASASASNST

[31] = target: MAPKAPK3 (human) (UniProt Q16644)
[32] = target: PRKCB2 (human) (UniProt P05771)
[33] = target: CAMK2D (human) (UniProt Q13557)
[34] = target: TSSK2 (human) (UniProt Q96PF2)
[35] = target: EPHA3 (human) (UniProt P29320)
[36] = target: VRK1 (human) (UniProt Q99986)
[37] = target: MAPKAPK5 (human) (UniProt Q8IW41)
[38] = target: CDK2 CCNE1 (human) (UniProt P24941+P24864)
[39] = target: STK39 (human) (UniProt Q9UEW8)
[40] = target: AXL (human) (UniProt P30530)
[41] = target: MAPKAPK2 (human) (UniProt P49137)
[42] = target: PAK1 (human) (UniProt Q13153)
Chain of PAK1 (human) (Q13153 whole entry, looked up): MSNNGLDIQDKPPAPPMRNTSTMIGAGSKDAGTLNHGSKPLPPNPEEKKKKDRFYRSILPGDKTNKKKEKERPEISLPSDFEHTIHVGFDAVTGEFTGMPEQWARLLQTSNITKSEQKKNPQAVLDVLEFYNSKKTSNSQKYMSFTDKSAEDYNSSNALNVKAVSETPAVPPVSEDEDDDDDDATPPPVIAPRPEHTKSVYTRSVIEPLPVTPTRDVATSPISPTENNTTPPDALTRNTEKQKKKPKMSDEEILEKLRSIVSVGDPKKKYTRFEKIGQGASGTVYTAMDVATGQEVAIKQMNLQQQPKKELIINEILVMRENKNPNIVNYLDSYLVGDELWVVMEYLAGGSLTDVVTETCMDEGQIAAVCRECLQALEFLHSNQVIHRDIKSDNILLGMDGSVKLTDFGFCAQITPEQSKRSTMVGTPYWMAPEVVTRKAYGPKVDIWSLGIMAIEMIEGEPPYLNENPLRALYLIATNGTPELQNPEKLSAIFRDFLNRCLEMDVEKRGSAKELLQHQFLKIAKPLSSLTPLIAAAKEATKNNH

Chain of EPHA2 (human) (P29317 whole entry, looked up): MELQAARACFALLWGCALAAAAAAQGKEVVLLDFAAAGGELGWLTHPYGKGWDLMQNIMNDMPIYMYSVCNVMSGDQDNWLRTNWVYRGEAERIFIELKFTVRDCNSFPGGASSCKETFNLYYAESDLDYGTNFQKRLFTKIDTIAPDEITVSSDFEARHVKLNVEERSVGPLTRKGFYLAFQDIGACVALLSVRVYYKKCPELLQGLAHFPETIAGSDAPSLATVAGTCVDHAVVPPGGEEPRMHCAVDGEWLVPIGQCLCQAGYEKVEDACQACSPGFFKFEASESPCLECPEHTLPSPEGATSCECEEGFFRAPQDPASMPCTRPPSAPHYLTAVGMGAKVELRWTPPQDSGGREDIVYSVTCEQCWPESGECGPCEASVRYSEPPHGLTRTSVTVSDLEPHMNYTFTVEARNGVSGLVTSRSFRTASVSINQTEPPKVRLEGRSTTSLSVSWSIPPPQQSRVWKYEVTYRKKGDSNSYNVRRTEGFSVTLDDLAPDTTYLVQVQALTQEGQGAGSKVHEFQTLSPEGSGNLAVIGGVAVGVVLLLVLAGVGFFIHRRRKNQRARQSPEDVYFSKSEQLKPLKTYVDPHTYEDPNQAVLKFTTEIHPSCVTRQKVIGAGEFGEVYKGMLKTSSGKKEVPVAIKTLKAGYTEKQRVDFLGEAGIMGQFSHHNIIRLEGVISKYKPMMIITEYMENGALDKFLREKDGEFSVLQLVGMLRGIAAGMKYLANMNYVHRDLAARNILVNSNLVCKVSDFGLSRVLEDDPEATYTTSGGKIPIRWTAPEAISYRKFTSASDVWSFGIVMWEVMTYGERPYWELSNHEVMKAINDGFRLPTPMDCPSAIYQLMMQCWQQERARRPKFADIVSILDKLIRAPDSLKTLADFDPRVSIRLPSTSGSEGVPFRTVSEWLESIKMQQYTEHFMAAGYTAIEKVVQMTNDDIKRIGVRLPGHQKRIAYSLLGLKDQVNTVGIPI

Compound `Fc1ccc(-c2nc3n(c2-c2ccncc2)CCS3)cc1` has a residual activity [1] of 105%, a residual activity [2] of 107% and a residual activity [3] of 100%. For the same compound, the residual activity [4] was 103%, the residual activity [5] was 97.4% and the residual activity [6] was 94.2%. For the same compound, the residual activity [7] was 90.7%, the residual activity [8] was 98.9% and the residual activity [9] was 113%. It also gave a residual activity [10] of 96.2%, a residual activity [11] of 106% and a residual activity [12] of 41.1%. The residual activity [13] was 91.1%, the residual activity [14] was 107% and the residual activity [15] was 97.8%. The residual activity [16] was 102%, the residual activity [17] was 109% and the residual activity [18] was 106%. The residual activity [19] was 95.7%, the residual activity [20] was 106% and the residual activity [21] was 72.3%. For the same compound, the residual activity [22] was 109%, the residual activity [23] was 96.4% and the residual activity [24] was 84.9%. It also gave a residual activity [25] of 106%, a residual activity [26] of 89.7% and a residual activity [27] of 86.4%. For the same compound, the residual activity [28] was 89.3%, the residual activity [29] was 108% and the residual activity [30] was 105%. It also gave a residual activity [31] of 95.5%, a residual activity [32] of 87.2% and a residual activity [33] of 97.1%. For the same compound, the residual activity [34] was 93.2%, the residual activity [35] was 112% and the residual activity [36] was 86.8%. The residual activity [37] was 97.2%, the residual activity [38] was 87.9% and the residual activity [39] was 103%. For the same compound, the residual activity [40] was 95.8%, the residual activity [41] was 101% and the residual activity [42] was 96.1%.

`O=C1c2ccccc2-c2nc3nnnn3nc21` was tested, and the residual activity [1] was 92.1%, the residual activity [2] was 100% and the residual activity [3] was 125%. For the same compound, the residual activity [4] was 58%, the residual activity [5] was 86.5% and the residual activity [6] was 83.1%. It also gave a residual activity [7] of 37%, a residual activity [8] of 90.8% and a residual activity [9] of 83.4%. It also gave a residual activity [10] of 70.5%, a residual activity [11] of 78.3% and a residual activity [12] of 98.2%. For the same compound, the residual activity [13] was 107%, the residual activity [14] was 75.1% and the residual activity [15] was 79.1%. For the same compound, the residual activity [16] was 6.33%, the residual activity [17] was 79.4% and the residual activity [18] was 108%. It also gave a residual activity [19] of 68.4%, a residual activity [20] of 88.1% and a residual activity [21] of 89%. For the same compound, the residual activity [22] was 79%, the residual activity [23] was 94.2% and the residual activity [24] was 78.3%. For the same compound, the residual activity [25] was 89.5%, the residual activity [26] was 97.9% and the residual activity [27] was 89.1%. The residual activity [28] was 65%, the residual activity [29] was 99.3% and the residual activity [30] was 83.5%. It also gave a residual activity [31] of 76%, a residual activity [32] of 29.3% and a residual activity [33] of 93%. It also gave a residual activity [34] of 75%, a residual activity [35] of 81.6% and a residual activity [36] of 90.5%. For the same compound, the residual activity [37] was 66.9%, the residual activity [38] was 80.6% and the residual activity [39] was 89.2%. The residual activity [40] was 10.3%, the residual activity [41] was 104% and the residual activity [42] was 96.1%.

Compound `CN(C)CCCn1cc(C2=C(c3c[nH]c4ccccc34)C(=O)NC2=O)c2ccccc21` has a residual activity [1] of 28%, a residual activity [2] of 81.8% and a residual activity [3] of 98.2%. The residual activity [4] was 72%, the residual activity [5] was 95% and the residual activity [6] was 3.24%. For the same compound, the residual activity [7] was 94%, the residual activity [8] was 67.6% and the residual activity [9] was 105%. It also gave a residual activity [10] of 91.8%, a residual activity [11] of 44.8% and a residual activity [12] of 94%. It also gave a residual activity [13] of 71.9%, a residual activity [14] of 2.47% and a residual activity [15] of 90%. For the same compound, the residual activity [16] was 104%, the residual activity [17] was 94.2% and the residual activity [18] was 101%. The residual activity [19] was 84.5%, the residual activity [20] was 66.9% and the residual activity [21] was 55.9%. The residual activity [22] was 83.3%, the residual activity [23] was 71.7% and the residual activity [24] was 85.3%. The residual activity [25] was 87.4%, the residual activity [26] was 113% and the residual activity [27] was 69.8%. The residual activity [28] was 94.7%, the residual activity [29] was 96.6% and the residual activity [30] was 7.01%. It also gave a residual activity [31] of 95.3%, a residual activity [32] of 12.6% and a residual activity [33] of 38.7%. It also gave a residual activity [34] of 97.3%, a residual activity [35] of 93% and a residual activity [36] of 95.5%. The residual activity [37] was 93.7%, the residual activity [38] was 80.4% and the residual activity [39] was 91.9%. It also gave a residual activity [40] of 100%, a residual activity [41] of 85.4% and a residual activity [42] of 84.2%.
